# Experimental data from PubChem BioAssay (NCI).
#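 Growth conditions: 96-well plates. Treatment: test compound, 48 hours, 5 concentrations. Analysis: linear interpolation between bracketing concentrations; unreached endpoints set to highest concentration. TGI marks complete inhibition of growth.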
# Experiments:
# Assay in all cases: NCI anticancer screen, dose series, 48 h
# HL-60(TB) leukemia = test system: HL-60(TB) leukemia
# MCF7 breast = test system: MCF7 breast
# OVCAR-3 ovarian = test system: OVCAR-3 ovarian
# OVCAR-8 ovarian = test system: OVCAR-8 ovarian
# SW-620 colon = test system: SW-620 colon
# UACC-257 melanoma = test system: UACC-257 melanoma
# UO-31 renal = test system: UO-31 renal
# CAKI-1 renal = test system: CAKI-1 renal
# MALME-3M melanoma = test system: MALME-3M melanoma
SMILES,TGI (HL-60(TB) leukemia) [µM],TGI (MCF7 breast) [µM],TGI (OVCAR-3 ovarian) [µM],TGI (OVCAR-8 ovarian) [µM],TGI (SW-620 colon) [µM],TGI (UACC-257 melanoma) [µM],TGI (UO-31 renal) [µM],TGI (CAKI-1 renal) [µM],TGI (MALME-3M melanoma) [µM]
CC1(C)CN=CC(C)(OCc2ccccc2)C(=O)NC(C)(C)CN=CC(C)(OCc2ccccc2)C(=O)N1 (centres undefined),> 10,> 10,> 10,> 10,> 10,> 10,> 10,–,–
O=c1[nH]c(=O)n(COCc2ccccc2)c2ccccc12,> 100,> 100,> 100,> 100,> 100,> 100,> 100,> 100,–
O=C1CCC2(c3ccc(Cl)cc3)Nc3ncncc3N12 (centres undefined),–,> 10,> 10,> 10,> 10,> 10,> 10,–,> 10
COc1ccc(C2=NNC(c3cc4cc(Br)ccc4nc3Cl)C2)cc1 (centres undefined),12.1,> 25,> 25,–,> 25,> 25,> 25,> 25,–
CC(=O)O[C@H]1C[C@](C)(O)[C@@]23CC([C@@H](OC(=O)C(C)(C)O)[C@@H](OC(C)=O)C2(COC(=O)c2ccccc2)[C@H]1OC(C)=O)C(C)(C)O3 (some centres undefined),–,> 100,> 100,> 100,> 100,> 100,> 100,> 100,> 100
N#CCc1nc2cc(C(F)(F)F)ccc2s1,–,–,75.8,87.4,> 100,> 100,–,> 100,> 100
COc1cc(C(O)C(=O)c2cnc3cc([N+](=O)[O-])ccc3n2)ccc1O (centres undefined),> 100,–,–,> 100,> 100,> 100,> 100,> 100,> 100
CN(C)C=NCC(O)c1ccccc1 (centres undefined),> 100,> 100,> 100,–,> 100,–,> 100,> 100,> 100
C=CCOCn1ccc(N)nc1=O,> 100,> 100,–,> 100,> 100,> 100,> 100,> 100,> 100
Cc1ccc(NC(=O)/C(=N/NC(=O)C[N+](C)(C)C)c2nc3ccccc3[nH]c2=O)cc1,–,–,> 100,> 100,33.8,> 100,> 100,> 100,> 100
C[N+]1([O-])[C@H]2CC(OC(=O)[C@H](CO)c3ccccc3)C[C@H]1[C@H]1O[C@H]12 (some centres undefined),–,> 100,> 100,> 100,> 100,> 100,> 100,> 100,> 100
O=c1c2cc(I)ccc2nc(SCc2nnco2)n1Cc1ccccc1,35.4,> 100,> 100,> 100,> 100,> 100,2.87,> 100,–
CN1C=COC1N=C1CCCCC1 (centres undefined),> 100,> 100,> 100,> 100,12.1,–,> 100,9.16,> 100
COc1ccc(C2C(C#N)=C(S)N(C3OC(CO)C(O)C(O)C3O)C(C)=C2C(C)=O)cc1 (centres undefined),> 100,> 100,> 100,> 100,> 100,> 100,> 100,–,> 100
Cn1cnc(SC2=C3C(=O)C=C4S[C@H]5C[C@]42c2c(c(O)c4c6c2=[N+]3CCC=6C=N4)N5)c1CC(N)C(=O)O (some centres undefined),38.8,–,14.6,27.2,18.5,29.9,37.6,79.1,12.4
O=C(Nc1ccc(Sc2ccc(N=Nc3c(O)c(S(=O)(=O)O)cc4cc(S(=O)(=O)O)ccc34)cc2)cc1)c1ccc(N=Nc2c(O)c(S(=O)(=O)O)cc3cc(S(=O)(=O)O)ccc23)cc1,37.4,–,54.9,> 100,> 100,> 100,> 100,> 100,53.5
COc1ccc(-c2nc(-c3cnccn3)n(Cc3ccccc3)n2)cc1,> 100,> 100,> 100,> 100,> 100,> 100,> 100,–,–
CCn1c(=O)c2c3ccc(OC)cc3[nH]c2c2ccc(OC)cc21,–,> 100,> 100,> 100,> 100,> 100,> 100,> 100,> 100
COc1cc([C@@H]2c3cc4c(cc3[C@@H](c3c(O)cc(O)c5c3O[C@H](c3ccc(O)c(O)c3)[C@H](OC(=O)c3cc(O)c(O)c(O)c3)C5)[C@H]3COC(=O)[C@H]23)OCO4)cc(OC)c1O,56.3,> 100,> 100,> 100,> 100,> 100,–,> 100,> 100
CC1CCOc2ccc(cc2)C=Nc2ccc(cc2)-c2ccc(cc2)N=Cc2ccc(cc2)OCC1 (centres undefined),> 100,> 100,> 100,> 100,> 100,> 100,> 100,> 100,–
COc1cc(C2c3cc(OC)c(OC)c(O)c3C(=O)C3CCC(=O)N32)cc(OC)c1OC (centres undefined),> 100,> 100,> 100,71.4,> 100,> 100,–,> 100,–
C[C@@]12C[C@@H](c3ccccc3O1)N1Cc3ccccc3CSC1=N2,–,> 100,> 100,> 100,> 100,> 100,> 100,> 100,> 100
CC1=NN(C(=O)Cc2ccccc2)C(=O)/C1=C\c1ccccc1O,> 100,–,> 100,> 100,> 100,> 100,> 100,> 100,> 100
OCC1OC(c2ccccc2)CC1O (centres undefined),> 100,> 100,> 100,> 100,> 100,> 100,> 100,> 100,–
Cc1ccc(N=C2SC(=NN(C)C)SC2=Nc2ccc(C)cc2)cc1,> 100,–,–,> 100,> 100,> 100,> 100,> 100,> 100
